PMC6934184, “Selective DNA-PKcs inhibition extends the therapeutic index of localized radiotherapy and chemotherapy” (The Journal of Clinical Investigation, 2019)

Target: T1, PRKD1 (PKC mu) (Homo sapiens, UniProt Q15139)
T1 construct: purchased Thermo Fisher Scientific (Life Technologies) SelectScreen
Assay: SelectScreen Z'LYTE
Type: biochemical
Procedure, shortened: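 Percent values come from Thermo SelectScreen profiling of NU5455, combining activity and binding assays. CSF1R was run in Z'LYTE format at Km app ATP, and CAMK1 in Adapta format with ATP listed at 10.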

T1 sequence (Q15139 whole entry): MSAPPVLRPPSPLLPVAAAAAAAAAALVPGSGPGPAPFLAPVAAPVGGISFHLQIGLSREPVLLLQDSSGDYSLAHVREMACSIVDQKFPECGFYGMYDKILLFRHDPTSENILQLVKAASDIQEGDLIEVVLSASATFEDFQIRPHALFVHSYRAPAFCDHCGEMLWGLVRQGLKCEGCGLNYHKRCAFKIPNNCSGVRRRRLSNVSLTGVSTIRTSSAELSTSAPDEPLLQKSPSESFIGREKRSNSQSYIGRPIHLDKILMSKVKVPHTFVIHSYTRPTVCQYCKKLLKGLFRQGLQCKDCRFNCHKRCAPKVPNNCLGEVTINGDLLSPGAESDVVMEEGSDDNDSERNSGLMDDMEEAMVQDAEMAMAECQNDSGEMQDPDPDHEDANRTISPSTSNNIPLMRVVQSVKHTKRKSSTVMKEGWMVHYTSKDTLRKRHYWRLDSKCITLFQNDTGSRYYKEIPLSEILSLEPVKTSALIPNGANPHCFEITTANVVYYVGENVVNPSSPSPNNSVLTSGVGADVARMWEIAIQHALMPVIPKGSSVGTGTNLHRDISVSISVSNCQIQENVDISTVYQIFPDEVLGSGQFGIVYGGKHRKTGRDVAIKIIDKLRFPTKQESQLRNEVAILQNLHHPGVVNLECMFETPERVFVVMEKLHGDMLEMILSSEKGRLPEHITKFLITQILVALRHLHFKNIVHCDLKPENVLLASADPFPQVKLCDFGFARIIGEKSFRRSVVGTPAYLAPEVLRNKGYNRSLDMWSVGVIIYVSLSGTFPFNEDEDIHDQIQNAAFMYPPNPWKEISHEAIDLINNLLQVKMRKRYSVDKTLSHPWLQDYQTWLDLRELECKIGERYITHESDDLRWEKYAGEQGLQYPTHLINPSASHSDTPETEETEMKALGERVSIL

## CN(C(=O)CN1CCOCC1)c1ccc2sc3c(-c4cccc5c(=O)cc(N6CC7CCC(C6)O7)oc45)cccc3c2c1 [NU5455]
  inhibition at 1 µM: -8.5%
